Values joined by “and” are separate entries in the source; they are usually repeats but may differ in a detail not shown here. Equal entries are not always repeated.
Tests used:
[1] = Combination study: plasma concentrations of Fpn127 and DFX (LC-MS/MS); type: in vivo, mouse
Method: (§1) On day 23 (study end) 1 hour after dosing blood was collected by retro-orbital bleeding from pre-terminally anesthetized mice into BD Microtainer Tubes (Cat. 365967 and 365975) for determination of serum iron, transferrin, erythropoietin and compound exposure. Anesthetized animals were subsequently euthanized by cervical dislocation.
(§2) [formula] Serum EPO was measured using a mouse-specific DuoSet ELISA according to the manufacturer's instructions (R&D Systems, Cat. DY959). Plasma concentrations of Fpn127 and DFX were measured at GVK Biosciences, Hyderabad, IN. Flow Cytometric Analysis of Intracellular ROS, Mitochondria, and PS Exposure
Plasma was collected 1 hour after dosing of DFX on day 23 for determination of compound concentration by LC-MS/MS. Plasma exposure of DFX was similar in animals dosed with DFX alone or in combination with Fpn127 (FIG. 11, Table 12). […] As expected, plasma levels of Fpn127 were low as plasma was sampled approximately 20 h after the last dose of Fpn127.

[2] = tested on: Hbb^th3/+ mouse model of β-thalassemia intermedia; assay: Combination study: hemoglobin (HemoCue photometer); type: in vivo; settings: th3/+ mice, DFX 30 mg/kg QD, Fpn127 120 mg/kg QD p.o., mean
Method: (§3) One day after switching to lid a blood sample was taken by tail vein incision to determine the baseline Hb levels. Hb was measured using a HaemoCue® device. Hb was also measured on days 8, 15, and 22 in the morning before dosing. The animals were dosed p.o. D with 30 mg/kg DFX in 30% Kolliphor, 120 mg/kg Fpn127 in 0.5% C, or both for a total of 17 doses during the 23 days of study. 30% Kolliphor and 0.5% C were dosed as vehicles. The dose of DFX was administered at the beginning of the dark cycle (active phase) at 9:00 followed by 3 h of access to lid. Then, mice were dosed with Fpn127 (or 0.5% C) and were given access to sd for a 6 h period before switched back to lid. On the dosing was paused and mi had access to lid ad libitum.
Hb was measured on days 1, 8, 15 and 22. Individual Hb values were determined at the starting day of the experiment (day 1) and weekly thereafter during the experimental phase in the morning before the first daily dose. A blood sample was taken by tail vein incision and Hb was measured using a HemoCue® DM201 Hb photometer.

[3] = tested on: Hbb^th3/+ mouse model of β-thalassemia intermedia; assay: Combination study: flow cytometric analysis of intracellular ROS, mitochondria and PS exposure in mature RBC; type: in vivo; settings: th3/+ mice, all animals; mature RBCs in whole blood at end of study (pre-terminally d22)
Method: In peripheral blood taken on day 22 by tail vein incision, ROS were detected with the indicator chloromethyl-2′,7′-dichlorodihydrofluorescein diacetate (CM-H2DCFDA, Invitrogen), the presence of mitochondria was detected with MitoTracker Deep Red FM (Invitrogen), and PS exposure was detected using the Annexin V Apoptosis Detection Kit (Invitrogen) in mature RBC labelled with Ter119 and CD71 antibodies.
For all analysis, cells were analyzed on a CANTOII cytometer (BD Biosciences) and data were analyzed using FlowJo® software (FlowJo, LLC, version 10.2).

[4] = tested on: Hbb^th3/+ mouse model of β-thalassemia intermedia; assay: Combination study: serum EPO (DuoSet ELISA); type: in vivo; settings: serum; th3/+ mice; day 23; DFX 30 mg/kg QD, Fpn127 120 mg/kg QD p.o.; all animals; mean
Method: as §1, §2

[5] = tested on: Hbb^th3/+ mouse model of β-thalassemia intermedia; assay: Combination study: organ weights and tissue iron (ICP-OES) in liver, spleen, kidney; settings: for relative spleen weight: percent of body weight; for relative spleen weight / kidney Fe conc. / liver Fe conc. / spleen Fe conc.: th3/+ mice, DFX 30 mg/kg QD, Fpn127 120 mg/kg QD p.o., end of study (day 23), mean
Method: The aim of this study was to test whether the concurrent use of the iron chelator DFX administered once daily (QD) alone at 30 mg/kg or in combination with Fpn127 administered QD at 120 mg/kg for 3 weeks is causing any therapeutic interactions in a mouse model of β-thalassemia intermedia (Hbb^th3/+; B6; 129P—b1tm1Unc-b2tm1Unc/J, Jackson Laboratories, Stock Number: 002683).
Animals were euthanized 1 h after the last dose of DFX on study day 23 (dosing day 17).
On the final study day (day 23), spleen, liver, and kidneys were collected and snap frozen in liquid nitrogen for further analysis, as outlined below. Wet weight of spleen, liver, and kidneys were recorded.
Content of total Fe was determined in pieces of spleens, livers, and kidneys by ICP-OES in the Analytical Development group of Vifor (International) Ltd., St. Gallen.
Individual wet weights of organs were recorded. Individual values of total Fe were measured in livers, spleens, and kidneys. Individual values of total Fe content and concentration were calculated. Mean±SD of total Fe concentration and content in livers, spleens, and kidneys was calculated for each group.

[6] = Combination study DFX/Fpn127: clinical observations, mortality and body weight; type: in vivo, mouse; settings: for BW: th3/+ mice, mean
Method: as §3
Animals and their cages were checked daily by the experimenter during the study on working days. During the experimental phase, animals were weighted minimum once per week and scored according to their clinical symptoms: BW, general behavior and activity, appearance of hair coat, eyes, and nose. Clinical observations were recorded when present on separate score sheets.
BW was recorded once before the start of the experimental phase on day −1. During the experimental phase, individual BW were recorded 1 to 2 times per week to calculate the dosing volume and to monitor weight loss.

[7] = tested on: Hbb^th3/+ mouse model of β-thalassemia intermedia; assay: Combination study: complete blood counts (ProCyte Dx); type: in vivo
Method: Complete blood counts were performed on fresh EDTA-blood on an automated blood cell analyzer (ProCyte Dx®, IDEXX Laboratories) in-house.

[8] = th3/+ mice, DFX 30 mg/kg QD, Fpn127 120 mg/kg QD p.o., whole blood day 23, all animals, mean

## O=C(O)c1ccc(-n2nc(-c3ccccc3O)nc2-c2ccccc2O)cc1 [DFX, deferasirox, reference compound]
[1]; 1 hour after dosing of DFX on day 23 (FIG. 11)
  plasma exposure of DFX, alone vs in combination with Fpn127: similar
[1]; both sexes, Hbb^th3/+ (B6; 129P—b1tm1Unc-b2tm1Unc/J), mouse, oral, 30 mg/kg, th3/+ mice, all animals, plasma collected 1 hour after dosing of DFX on day 23, LC-MS/MS, read-out: Plasma exposure of DFX at the end of the study (mean)
  concentration at 1 h: 15400 ng/mL
[2]; day 1 (before dosing), all animals
  Hb concentration: 84 g/L
[2]; day 1 (before dosing), females
  Hb concentration: 86 ± 2 g/L and 86 g/L
[2]; day 1 (before dosing), males
  Hb concentration: 82 ± 3 g/L and 82 g/L
[2]; day 8, all animals
  Hb concentration: 98 g/L
[2]; day 8, females
  Hb concentration: 99 g/L
[2]; day 8, males
  Hb concentration: 96 g/L
[2]; day 15, all animals
  Hb concentration: 81 g/L
[2]; day 15, females
  Hb concentration: 82 g/L
[2]; day 15, males
  Hb concentration: 80 g/L
[2]; day 22, all animals
  Hb concentration: 86 g/L
[2]; day 22, females
  Hb concentration: 85 g/L
[2]; day 22, males
  Hb concentration: 88 g/L
[3]
  % Annex in V-positive RBCs (mean): 0.47%
  % Mito Tracker-positive RBCs (mean): 0.56%
  % ROS-positive RBCs (mean): 41.56%
[4]
  EPO: 5277 ± 1710 pg/mL and 5277 pg/mL
[5]; end of study d23 (FIG. 4)
  effect on relative spleen weight in th3/+ animals: no effect
[5]; all animals
  relative spleen weight: 1.98±0.26% and 1.98%
  kidney Fe conc.: 125.1 ± 22.2 µg/g and 125.1 µg/g
  liver Fe conc.: 196.3 ± 62.5 µg/g and 196.3 µg/g
  spleen Fe conc.: 1553.0 ± 144.7 µg/g and 1553.0 µg/g
[5]; females
  relative spleen weight: 2.17%
  kidney Fe conc.: 126.6 µg/g
  liver Fe conc.: 241.2 µg/g
  spleen Fe conc.: 1511.0 µg/g
[5]; males
  relative spleen weight: 1.79%
  kidney Fe conc.: 123.6 µg/g
  liver Fe conc.: 151.5 µg/g
  spleen Fe conc.: 1602.0 µg/g
[6]; Hbb^th3/+ mice, DFX 30 mg/kg QD, Fpn127 120 mg/kg QD p.o., 17 doses in 23 days
  tolerability / clinical symptoms: generally well tolerated
[6]; males
  BW by the end of the study vs vehicle treated Hbb^th3/+ mice: slightly but significantly lower BW
[6]; DFX 30 mg/kg QD, Fpn127 120 mg/kg QD p.o., day 1, all animals
  BW: 21.5 g
[6]; DFX 30 mg/kg QD, Fpn127 120 mg/kg QD p.o., day 1, females
  BW: 19.2 ± 1.3 g and 19.2 g
[6]; DFX 30 mg/kg QD, Fpn127 120 mg/kg QD p.o., day 1, males
  BW: 23.7 ± 1.3 g and 23.7 g
[6]; DFX 30 mg/kg QD, Fpn127 120 mg/kg QD p.o., day 3, all animals
  BW: 23.2 g
[6]; DFX 30 mg/kg QD, Fpn127 120 mg/kg QD p.o., day 3, females
  BW: 20.9 g
[6]; DFX 30 mg/kg QD, Fpn127 120 mg/kg QD p.o., day 3, males
  BW: 25.6 g
[6]; DFX 30 mg/kg QD, Fpn127 120 mg/kg QD p.o., day 7, all animals
  BW: 23.2 g
[6]; DFX 30 mg/kg QD, Fpn127 120 mg/kg QD p.o., day 7, females
  BW: 21.0 g
[6]; DFX 30 mg/kg QD, Fpn127 120 mg/kg QD p.o., day 7, males
  BW: 25.4 g
[6]; DFX 30 mg/kg QD, Fpn127 120 mg/kg QD p.o., day 10, all animals
  BW: 22.9 g
[6]; DFX 30 mg/kg QD, Fpn127 120 mg/kg QD p.o., day 10, females
  BW: 20.6 g
[6]; DFX 30 mg/kg QD, Fpn127 120 mg/kg QD p.o., day 10, males
  BW: 25.2 g
[6]; DFX 30 mg/kg QD, Fpn127 120 mg/kg QD p.o., day 14, all animals
  BW: 23.0 g
[6]; DFX 30 mg/kg QD, Fpn127 120 mg/kg QD p.o., day 14, females
  BW: 20.7 g
[6]; DFX 30 mg/kg QD, Fpn127 120 mg/kg QD p.o., day 14, males
  BW: 25.2 g
[6]; DFX 30 mg/kg QD, Fpn127 120 mg/kg QD p.o., day 17, all animals
  BW: 22.8 g
[6]; DFX 30 mg/kg QD, Fpn127 120 mg/kg QD p.o., day 17, females
  BW: 20.4 g
[6]; DFX 30 mg/kg QD, Fpn127 120 mg/kg QD p.o., day 17, males
  BW: 25.2 g
[6]; DFX 30 mg/kg QD, Fpn127 120 mg/kg QD p.o., day 22, all animals
  BW: 23.3 g
[6]; DFX 30 mg/kg QD, Fpn127 120 mg/kg QD p.o., day 22, females
  BW: 20.8 g
[6]; DFX 30 mg/kg QD, Fpn127 120 mg/kg QD p.o., day 22, males
  BW: 25.9 g
[7]; Hbb^th3/+ mice, day 23, potential inflammatory response
  neutrophil counts: significantly increased
[7]; [8]
  HCT: 27.4%
  Leukocytes: 8.9 10E3/μL
  Lymphocytes: 7.4 10E3/μL
  MCH: 10.4 pg
  MCHC: 25.4 g/dL
  MCV: 41.1 fL
  Neutrophils: 1.2 10E3/μL
  RBC: 7.7 10E6/μL
  RDW: 47.0%
  RET: 1760 10E3/μL
  Ret-He: 12.8 pg

Reference: patent publication US12533348B2, “Ferroportin-inhibitors for the use in the treatment of transfusion-dependent beta-thalassemia (TDT)” (Vifor (International) AG, priority 2019, dated 2026)
